# Reference: patent US20210315881A1, “COMBINATION OF HISTONE DEACETYLASE INHIBITOR AND PROTEIN KINASE INHIBITOR AND PHARMACEUTICAL USE THEREOF” (SHENZHEN CHIPSCREEN BIOSCIENCES CO., LTD., priority 2018, published 2021)
# Columns and labels:
# [1] = test system: Bel-7404 cells; assay: Colony forming assay (crystal violet); format: cell-based, human; settings: Bel-7404, Chiauranib monotreatment 3 μM, 2-3 weeks
# Procedure: (§1) Human hepatoma cell line Bel-7402 and Bel-7404 were purchased from the Cell Resource Center of Shanghai Institutes for Biological Sciences, CAS, and routinely cultured at 37° C. under 5% CO2, in a culture medium of RPMI-1640 (Gibco) containing 10% fetal bovine serum (FBS; Gibco) and 1% Penicillin-Streptomycin (HyClone). Trypsin was purchased from Gibco. Crystal violet, RNase A (10 mg/mL) solution, propidium iodide (PI), Triton X-100 were purchased from Sangon Biotech (Shanghai) Co., Ltd. MTS cell viability assay kits, Caspase-Glo 3/7 assay kits were purchased from Promega. Nude mice were purchased from Guangdong Medical Laboratory Animal Center.
# (§2) The SMMC-7721, Bel-7404 cell lines at the log phase stage were digested by trypsin, collected and counted, then seeded in a 6-well cell culture plate at the density of 500 cells/1.8 mL in each well, and cultured at 37° C. under 5% CO2. After cultured overnight, the cells were administered according to the grouping and the final concentration dosages shown in FIG. 2 (the final volume of each well after administration was 2 mL). The culture media and drugs were replaced every 3 days to keep the culture system and the dosage for each well stable.
# After cultured for 2-3 weeks, when there were visible cell colonies in the culture plate, the culture was terminated. The supernatants were discarded, and the plate was washed carefully with PBS twice. […]
# [2] = test system: Bel-7404 cells; assay: Cell cycle analysis by flow cytometry with PI staining; format: cell-based, human; settings: Bel-7404, 3 μM Chiauranib, 48 hours
# Procedure: as §1
# The cells of Bel-7404 at the log phase stage were digested by trypsin, collected and counted. The cells were seeded in a 6-well plate at the density of 10^6 cells per well in a total of 18 wells. […] The fixed samples were allowed to stand at 4° C. for more than 12 hours, and analyzed by the flow cytometry assay within 1 week.
# PBS, 10 mg/mL PI stock solution, 10 mg/mL RNase A solution and Triton X-100 were mixed at a ratio of 1000:5:2:1 to form a working dye solution. […] The filtrate was analyzed for cell cycles by the flow cytometry assay (each sample counted 20,000 cells).
# [3] = test system: Bel-7404 cell xenograft; assay: Tumor cell xenograft model in nude mice; format: in vivo; settings: 2.5 mg/kg Chiauranib, intragastrically once a day, 33 days, vs solvent control
# Procedure: The cells of Bel-7404 were cultured to expend to a large amount, and maintained at a log phase state. After the number of the cells reached the required amount, they were digested with trypsin, collected, washed twice with a large amount of PBS to remove the trypsin and serum, and centrifuged at 800 rpm for 10 min at room temperature and the cell supernatants were discarded. The cells were resuspended in the FBS-free RPIM-1640 culture medium, and adjusted the cell density to 10^7/300 μL.
# Under aseptic conditions, each nude mouse was injected subcutaneously on the back with 300 μL/injection, one injection per nude mouse. A 1 mL disposable medical syringe for injection was used, and the injection site and direction were roughly same for each nude mouse.
# One day after cell implanting, the nude mice were randomly divided into four groups (namely, solvent control group, Chiauranib 2.5 mg/kg group, Chidamide 20 mg/kg group and the combined administration group), housed in separate cages after marked, administered in groups and tumor formation of each mouse was observed every day. […] Every 2 days, the longest diameter of the tumor (length) and the widest diameter (width) perpendicular to the longest diameter were measured with a vernier caliper. The tumor volume was calculated by the formula TS=length×(width)^2/2 and recorded. […]
# [4] = test system: SMMC-7721 cells; assay: Colony forming assay (crystal violet); format: cell-based; settings: SMMC-7721, Chiauranib monotreatment 5 μM, 2-3 weeks
# Procedure: as §2
# After cultured for 2-3 weeks, when there were visible cell colonies in the culture plate, the culture was terminated. The supernatants were discarded, and the plate was washed carefully with PBS twice. 1 mL of 75% ethanol solution was added to each well to fix the cells, and the fixative solution was discarded after 15 min. Then the cells were stained for 15 min by adding 1 mL of crystal violet solution to each well, and the staining solution was washed slowly with running water and air dried. The stained positive cell colonies in each well of the culture plate were photographed to compare their density.
# [5] = test system: Bel-7404 cells; assay: MTS cell viability assay; format: cell-based, human; settings: Bel-7404, monotreatment, 120 hours, dose-dependent
# Procedure: as §1
# (§3) The Bel-7402, Bel-7404 cell lines were digested by trypsin, collected and counted, and then seeded in a 96-well cell culture plate at the density of 3,000 cells/180 μL in each well, and cultured at 37° C. under 5% CO2. […] After incubation at 37° C. for about 1 hour, the absorbance of each well was read at 490 nm wavelength with a microplate reader. The OD490-T value of each administered well and the OD490-T0 value of the negative control well after background deduction were obtained by subtracting OD490-BLK from the absorbance reading value of each well.
# (§4) The relative survival rate of the cells in each administered well was calculated according to the following formula: […]
# [6] = test system: Bel-7402 cells; assay: MTS cell viability assay; format: cell-based, human; settings: Bel-7402, monotreatment, 120 hours, dose-dependent
# Procedure: as §1, §3, §4
# [7] = test system: Bel-7404 cells; assay: Cell apoptosis by Caspase 3/7 assay; format: cell-based, human; settings: Bel-7404, 3 μM Chiauranib monotreatment, 48 hours
# Procedure: as §1
# The cells of Bel-7404 at the log phase stage were digested by trypsin, collected and counted. The cells were seeded in a 96-well plate at density of 2000 cells per well in a total of 18 wells. […]
# The 96-well plates containing the treated cells were taken out of the incubator and equilibrated to room temperature. […] The […] value of each sample was measured by a luminometer. The […] value can directly reflect the proportion of apoptotic cells in each well, and can be used to calculate and compare the cell viability of the different groups.
smiles,measurement,setting,value
COc1ccc2c(Oc3ccc4c(C(=O)Nc5ccccc5N)cccc4c3)ccnc2c1 [Chiauranib],formation of cell colonies,[1],affected somewhat on the formation of cell colonies
same,cells in G2/M phase and polyploid cells,[2],slightly increased
same,tumor volume of tumor-bearing nude mice,[3],inhibited to a certain extent
same,formation of cell colonies,[4],relatively significant effect on the formation of cell colonies
same,inhibitory effect on tumor cell proliferation (survival rate),[5],a certain inhibitory effect on tumor cell proliferation
same,inhibitory effect on tumor cell proliferation (survival rate),[6],a certain inhibitory effect on tumor cell proliferation
same,proportion of apoptotic cells,[7],increased the proportion of apoptotic cells to a certain extent
